The target of series [1] is T1, CYP2C19 (Homo sapiens, UniProt P33261). Kind of series: CYP reversibility study (pre-incubation with or without NADPH), 2C19. The class given is in vitro ADME. Conditions: for mechanism of CYP2C19 inhibition: NADPH-dependent shift of IC50. The protocol:
(§1) CYP Inhibition and reversibility studies
(§2) Mammalian CYP inhibition values and reversibility studies were conducted by WuXi AppTech
(§3) (Tianjin, China 300457) according to standard protocols. […]

A further series addresses cruzain (Trypanosoma cruzi, UniProt P25779). Kind of series: biochemical.
In series [2] the target is T1, CYP2C19. Kind of series: Mammalian CYP inhibition panel, 2C19. The format is in vitro ADME.
In series [3] the target is T2, CYP3A4 (Homo sapiens, UniProt P08684). Set-up: method as in PMID 11038163. Particulars: cited from earlier work.
The target of series [4] is T2, CYP3A4. Kind of series: CYP reversibility study (pre-incubation with or without NADPH), 3A4. Conditions: for mechanism of CYP3A4 inhibition: NADPH-dependent shift of IC50. The class given is in vitro ADME. As to the method: Given the similar IC50 values for 1 and 4 against CYP3A4, we were curious to determine whether 4 is an irreversible inhibitor of this enzyme, as is the case for 1 [30].
as §1, §2, §3

The target of series [5] is T2, CYP3A4. Kind of series: Mammalian CYP inhibition panel, 3A4. The class given is in vitro ADME.
The target of series [6] is T3, ≈35 kDa host-cell protein (cathepsin B) (Mus musculus, UniProt P10605).
T3 construct: endogenous in cells; host or cells: C2C12 mouse myoblasts
Kind of series: Competitive labeling of host cell (C2C12) proteins with probe 9. The class given is cell-based. Particulars: C2C12 cells, pretreatment with 10 μM for one hour. The protocol: The discovery of a potential mammalian off-target of probe 9 (and presumably also of 1) was of considerable interest, so we explored this finding further. To determine if this protein was also a target of 1 and 4, we conducted competition experiments in C2C12 cells. […]
Cellular labeling assay and “click” chemistry: C2C12 cells (1.5 × 10^6 cells) were pre-treated with competitor compounds in culture media (1 mL, DMEM with 10% FBS) for 1 hour at 37 °C.
Then additional competitor compound and 9 (2 µM) were added in culture media (1 mL), and the cells were incubated for an additional hour. The cells were then pelleted, washed with phosphate-buffered saline pH 7.4 (2 × 1 mL), and lysed with 1% SDS in phosphate-buffered saline (400 µL). The denatured lysates were sonicated to reduce viscosity, centrifuged to give pellets of the insoluble material, and normalized for total protein content. The normalized lysates (22 µL, 3 mg/mL) were mixed with TAMRA azide 10 (0.5 µL, 5 mM), TCEP (0.5 µL, 50 mM, pH ~7.0), TBTA ligand in 1:4 DMSO/t-butyl alcohol (1.5 µL, 1 mM), and CuSO4 (0.5 µL, 50 mM).
Reactions were incubated at room temperature for one hour and then resolved by SDS-PAGE.
The resulting gel was scanned for fluorescence (Typhoon Imaging System, Molecular Dynamics) and coomassie stained. […]

In a further series the target is CYP2C9 (Homo sapiens, UniProt P11712). Kind of series: Mammalian CYP inhibition panel, 2C9. The format is in vitro ADME.
The test system of series [7] is T. cruzi parasites in J774 macrophage host cells. Kind of series: Minimum trypanocidal concentration (MTC) assay. The class given is cell-based, Trypanosoma cruzi. Particulars: for T. cruzi growth inhibition MTC: clears J774 host cells of parasites at day 40, following 28 days of treatment.
In a further series the target is TcCYP51 (Trypanosoma cruzi, UniProt Q7Z1V1). Kind of series: biochemical. Conditions: UV-vis binding assay; lower limit of KD ~5 nM; read-out: TcCYP51 activity in vitro KD.
A further series has as its target CYP2D6 (Homo sapiens, UniProt P10635). Kind of series: Mammalian CYP inhibition panel, 2D6. The class given is in vitro ADME.
A further series deals with P-glycoprotein (P-gp). Particulars: stated as known, no reference given; cited from earlier work.
In series [8] the test system is TcCYP51 (ergosterol biosynthesis) in intracellular T. cruzi parasites. Kind of series: Ergosterol biosynthesis / sterol composition of intracellular T. cruzi by GC/MS. Particulars: for effect on sterol (lipid) composition of intracellular T. cruzi: concentrations below MTC. The format is cell-based, Trypanosoma cruzi. Set-up: key to TcCYP51 cellular activity (Y/N): Y: Compound affects ergosterol biosynthesis at indicated concentration as determined by GC/MS analysis; cellular activity (Y/N, conc.).

In series [9] the test system is T. cruzi parasites in C2C12 host cells. Kind of series: High-content imaging-based screening (HCS) assay. Conditions: Trypanosoma cruzi; reduces parasite load in C2C12 cells by 90% relative to untreated controls; read-out: T. cruzi growth inhibition HCS EC90. The class given is cell-based.
For a further series, the target named is T4, CYP1A2 (Homo sapiens, UniProt P05177).
T4 sequence (P05177 1-516): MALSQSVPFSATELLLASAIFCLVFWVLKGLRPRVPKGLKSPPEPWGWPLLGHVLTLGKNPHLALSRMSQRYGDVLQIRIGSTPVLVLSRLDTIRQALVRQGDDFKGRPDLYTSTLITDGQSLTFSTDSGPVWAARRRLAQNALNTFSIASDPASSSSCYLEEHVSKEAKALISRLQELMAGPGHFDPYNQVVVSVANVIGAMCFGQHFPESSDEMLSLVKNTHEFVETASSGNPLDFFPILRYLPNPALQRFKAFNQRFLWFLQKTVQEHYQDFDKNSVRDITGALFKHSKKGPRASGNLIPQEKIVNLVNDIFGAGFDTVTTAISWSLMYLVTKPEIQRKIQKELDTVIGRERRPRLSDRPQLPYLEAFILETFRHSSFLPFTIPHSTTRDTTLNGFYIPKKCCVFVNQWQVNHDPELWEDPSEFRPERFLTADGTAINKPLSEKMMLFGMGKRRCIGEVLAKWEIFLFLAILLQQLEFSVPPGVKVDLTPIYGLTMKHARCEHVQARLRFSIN
Kind of series: Mammalian CYP inhibition panel, 1A2. The class given is in vitro ADME.

The test system of series [10] is CYP1A2, CYP2C9, CYP2C19, CYP2D6, CYP3A4 (average over the panel of mammalian CYP enzymes). Kind of series: Mammalian CYP inhibition panel, average over panel. The class given is in vitro ADME. Conditions: human; average of 1A2, 2C9, 2C19, 2D6, 3A4; read-out: average IC50 across the CYP panel.

T2 sequence (P08684 whole entry): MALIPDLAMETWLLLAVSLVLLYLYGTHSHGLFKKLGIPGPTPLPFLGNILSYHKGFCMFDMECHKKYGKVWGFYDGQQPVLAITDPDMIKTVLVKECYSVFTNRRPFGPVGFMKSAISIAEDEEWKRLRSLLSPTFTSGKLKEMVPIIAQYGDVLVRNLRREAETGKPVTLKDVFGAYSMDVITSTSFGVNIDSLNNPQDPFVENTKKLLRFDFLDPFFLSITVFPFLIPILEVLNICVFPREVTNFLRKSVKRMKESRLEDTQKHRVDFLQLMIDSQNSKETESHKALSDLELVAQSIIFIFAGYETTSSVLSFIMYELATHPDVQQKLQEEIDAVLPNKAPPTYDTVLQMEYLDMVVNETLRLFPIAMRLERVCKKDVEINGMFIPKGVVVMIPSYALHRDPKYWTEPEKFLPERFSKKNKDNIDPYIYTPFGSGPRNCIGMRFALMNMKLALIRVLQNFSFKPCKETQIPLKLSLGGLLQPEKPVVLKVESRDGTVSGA
T1 sequence (P33261 whole entry): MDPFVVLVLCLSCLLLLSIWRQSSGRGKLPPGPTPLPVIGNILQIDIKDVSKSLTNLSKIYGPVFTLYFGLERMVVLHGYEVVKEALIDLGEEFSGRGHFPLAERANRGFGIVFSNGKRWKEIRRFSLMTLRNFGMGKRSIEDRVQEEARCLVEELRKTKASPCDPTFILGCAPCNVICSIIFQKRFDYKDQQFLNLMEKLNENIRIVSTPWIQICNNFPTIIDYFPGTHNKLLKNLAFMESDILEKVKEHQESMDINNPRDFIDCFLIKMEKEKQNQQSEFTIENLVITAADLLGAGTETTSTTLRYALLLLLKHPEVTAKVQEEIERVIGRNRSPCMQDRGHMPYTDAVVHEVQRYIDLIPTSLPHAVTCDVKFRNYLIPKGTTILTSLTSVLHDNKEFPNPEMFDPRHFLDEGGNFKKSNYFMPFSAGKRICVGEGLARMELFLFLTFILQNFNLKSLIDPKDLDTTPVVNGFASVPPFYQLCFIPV
Sequence of CYP2D6 (P10635 whole entry): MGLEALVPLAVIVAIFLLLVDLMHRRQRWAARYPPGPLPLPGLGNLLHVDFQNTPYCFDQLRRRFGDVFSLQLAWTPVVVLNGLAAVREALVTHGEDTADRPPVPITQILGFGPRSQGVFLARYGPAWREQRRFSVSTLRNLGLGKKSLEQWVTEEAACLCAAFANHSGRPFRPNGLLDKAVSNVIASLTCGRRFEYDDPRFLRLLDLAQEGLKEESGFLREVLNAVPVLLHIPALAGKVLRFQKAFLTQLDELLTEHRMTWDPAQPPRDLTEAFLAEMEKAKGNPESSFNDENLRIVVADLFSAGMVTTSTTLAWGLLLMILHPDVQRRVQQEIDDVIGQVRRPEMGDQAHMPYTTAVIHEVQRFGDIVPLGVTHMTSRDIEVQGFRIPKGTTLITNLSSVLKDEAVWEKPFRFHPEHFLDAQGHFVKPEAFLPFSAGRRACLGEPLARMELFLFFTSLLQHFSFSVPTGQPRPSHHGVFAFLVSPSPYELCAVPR
T3 sequence (P10605 80-333 limits assumed): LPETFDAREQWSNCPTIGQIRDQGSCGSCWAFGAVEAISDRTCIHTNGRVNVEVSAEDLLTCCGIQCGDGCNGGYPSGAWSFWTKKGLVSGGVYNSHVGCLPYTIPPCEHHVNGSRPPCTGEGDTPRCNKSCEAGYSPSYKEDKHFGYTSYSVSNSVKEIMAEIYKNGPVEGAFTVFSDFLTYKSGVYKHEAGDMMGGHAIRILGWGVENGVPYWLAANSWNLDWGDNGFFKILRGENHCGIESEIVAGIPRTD
Sequence of TcCYP51 (Q7Z1V1 whole entry): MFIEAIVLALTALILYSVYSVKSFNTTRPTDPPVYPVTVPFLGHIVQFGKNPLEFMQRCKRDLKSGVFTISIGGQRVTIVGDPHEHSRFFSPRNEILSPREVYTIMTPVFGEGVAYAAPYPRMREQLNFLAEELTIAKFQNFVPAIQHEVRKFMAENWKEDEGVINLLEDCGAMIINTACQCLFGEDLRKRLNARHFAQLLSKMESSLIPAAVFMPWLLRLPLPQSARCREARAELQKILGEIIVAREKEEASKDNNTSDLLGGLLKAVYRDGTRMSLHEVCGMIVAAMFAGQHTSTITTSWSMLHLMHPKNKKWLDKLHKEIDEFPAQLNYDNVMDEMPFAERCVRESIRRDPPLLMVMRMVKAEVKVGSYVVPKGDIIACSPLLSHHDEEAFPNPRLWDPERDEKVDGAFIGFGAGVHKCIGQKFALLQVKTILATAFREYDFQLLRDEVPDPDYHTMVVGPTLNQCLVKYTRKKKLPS
Sequence of cruzain (P25779 123-337 limits assumed): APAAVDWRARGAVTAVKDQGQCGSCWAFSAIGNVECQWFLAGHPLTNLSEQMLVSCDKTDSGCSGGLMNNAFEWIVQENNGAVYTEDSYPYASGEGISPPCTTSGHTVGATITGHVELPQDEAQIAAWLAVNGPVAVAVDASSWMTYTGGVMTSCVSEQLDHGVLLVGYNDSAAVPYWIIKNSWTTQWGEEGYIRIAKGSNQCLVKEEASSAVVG
Sequence of CYP2C9 (P11712 whole entry): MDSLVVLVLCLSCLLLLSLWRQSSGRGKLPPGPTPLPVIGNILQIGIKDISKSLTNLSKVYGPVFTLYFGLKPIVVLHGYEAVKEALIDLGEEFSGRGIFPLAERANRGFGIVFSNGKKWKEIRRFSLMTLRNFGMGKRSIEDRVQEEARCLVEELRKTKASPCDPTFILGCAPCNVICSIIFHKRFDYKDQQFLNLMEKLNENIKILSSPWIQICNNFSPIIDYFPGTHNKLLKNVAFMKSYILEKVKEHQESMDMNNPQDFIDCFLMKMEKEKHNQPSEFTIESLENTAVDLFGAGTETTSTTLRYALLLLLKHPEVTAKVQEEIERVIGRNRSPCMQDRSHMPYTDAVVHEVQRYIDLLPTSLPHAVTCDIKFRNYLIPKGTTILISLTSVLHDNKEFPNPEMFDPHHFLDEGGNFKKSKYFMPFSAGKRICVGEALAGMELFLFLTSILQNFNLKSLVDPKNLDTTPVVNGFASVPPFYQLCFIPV

A word on the IC50: it is the midpoint of a concentration-inhibition curve. The term kinact/KI denotes the second-order rate constant of inactivation. The term Kd denotes the constant that tells how readily two partners part at equilibrium. A word on the EC90: it is the concentration at which the effect reaches the 90% level. `CN1CCN(C(=O)N[C@@H](Cc2ccccc2)C(=O)N[C@H](/C=C/S(=O)(=O)c2ccccc2)CCc2ccccc2)CC1` [Compound 1, reference compound]: the “mechanism of CYP2C19 inhibition” value on CYP2C19 [1] is on record as “reversible inhibitors”. Besides, the IC50 worked out at 5540 nM on CYP2C19 [1] (pre-incubation with NADPH); 8220 nM against CYP2C19 [1] (pre-incubation without NADPH); 7600 nM on CYP2C19 [2]; 5.9 nM on CYP3A4 [4] (pre-incubation with NADPH); 1080 nM against CYP3A4 [4] (pre-incubation without NADPH); 1700 nM on CYP3A4 [5]. For the same compound, the IC50 on CYP2C9 amounted to 32000 nM; at CYP2D6, 26000 nM; at CYP1A2 it was 24000 nM. In addition, the inactivation efficiency (kinact/KI) at cruzain was 118000 M⁻¹ s⁻¹. Moreover, the “type of CYP3A4 inhibition” value on CYP3A4 [3] is listed as “mechanism-based (irreversible) inhibitor of CYP3A4”. The “mechanism of CYP3A4 inhibition” value at CYP3A4 [4] is “irreversible inhibition”. Further, the “competition for labeling of the ≈35 kDa band by probe 9” value in [6] is reported as “successfully blocked labeling”. Besides, in series [7], the “T. cruzi growth inhibition MTC” value turned out to be 8 µM. Besides, the equilibrium dissociation constant (Kd) on TcCYP51 was above 2000 nM. The “P-glycoprotein (P-gp) substrate” value with P-glycoprotein (P-gp) was “substrate of the drug transporter P-glycoprotein (P-gp)”. In addition, the “TcCYP51 cellular activity (Y/N)” value in series [8] (affects ergosterol biosynthesis at 1.6 μM) is “N (1.6 μM)”. In addition, in series [8], the “effect on sterol (lipid) composition of intracellular T. cruzi” value is reported as “little effect on sterol composition”. In addition, the 90% effect concentration (EC90) in [9] turned out to be 100 nM.
On to `Cc1ccc(C[C@H](NC(=O)c2ccncc2)C(=O)N[C@H](/C=C/S(=O)(=O)c2ccccc2)CCc2ccccc2)cc1` [Compound 4, N-[(2S)-1-[[(E,3S)-1-(benzenesulfonyl)-5-phenylpent-1-en-3-yl]amino]-3-(4-methylphenyl)-1-oxopropan-2-yl]pyridine-4-carboxamide], for which the “mechanism of CYP2C19 inhibition” value on CYP2C19 [1] is “reversible inhibitors”. Besides, the IC50 is 300 nM against CYP2C19 [1] (pre-incubation with NADPH); 170 nM against CYP2C19 [1] (pre-incubation without NADPH); 3400 nM at CYP2C19 [2]; 117 nM at CYP3A4 [4] (pre-incubation with NADPH); 46 nM on CYP3A4 [4] (pre-incubation without NADPH); 800 nM against CYP3A4 [5]. Besides, the IC50 on CYP2C9 is 5500 nM; in series [10] it was around 7000 nM; against CYP2D6, 2700 nM; against CYP1A2, 22000 nM. Further, the kinact/KI at cruzain came to 67300 M⁻¹ s⁻¹. Besides, at CYP3A4 [4], the “mechanism of CYP3A4 inhibition” value is “reversible inhibition”. In series [6], the “competition for labeling of the ≈35 kDa band by probe 9” value is given as “successfully blocked labeling”. In series [7], the “T. cruzi growth inhibition MTC” value was 0.6 µM. Besides, the “fold more potent than 1 in the MTC assay” value in [7] (relative to compound 1) is listed as “about 10 fold”. Further, on TcCYP51, the Kd was at most 5 nM. The “TcCYP51 cellular activity (Y/N)” value in series [8] (affects ergosterol biosynthesis at 0.2 μM) was “Y (0.2 μM)”. Further, in series [8], the “effect on sterol (lipid) composition of intracellular T. cruzi” value is listed as “effects very similar to those observed in posaconazole treated parasites”. Also, in [9], the EC90 turned out to be 100 nM.
